# Measurements from US11524968B2, “Heterocyclic compound as a protein kinase inhibitor” (HK inno.N Corporation, priority 2017, dated 2022).
# Target: JAK1 (Homo sapiens (Human), UniProt P23458)
# Experiment: Analysis of JAK1 activity inhibition ability (ADP-Glo Kinase Assay)
# Assay type: biochemical
# Conditions: JAK1 enzyme, ADP-Glo luminescence, ATP 250 uM, IRS-itide substrate, 30° C. 40 minutes; read-out: IC50
# In short: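 JAK1 enzyme, IRS-itide substrate (40 ng/mL) and 250 uM ATP, both as prepared in kinase buffer (Tris-HCl pH 7.5, MgCl2, BSA, DTT), reacted with compound 40 min at 30 °C. ADP formed was detected by ADP-Glo luminescence; IC50 is the concentration giving 50% inhibition versus control.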
# JAK1, sequence (P23458 whole entry): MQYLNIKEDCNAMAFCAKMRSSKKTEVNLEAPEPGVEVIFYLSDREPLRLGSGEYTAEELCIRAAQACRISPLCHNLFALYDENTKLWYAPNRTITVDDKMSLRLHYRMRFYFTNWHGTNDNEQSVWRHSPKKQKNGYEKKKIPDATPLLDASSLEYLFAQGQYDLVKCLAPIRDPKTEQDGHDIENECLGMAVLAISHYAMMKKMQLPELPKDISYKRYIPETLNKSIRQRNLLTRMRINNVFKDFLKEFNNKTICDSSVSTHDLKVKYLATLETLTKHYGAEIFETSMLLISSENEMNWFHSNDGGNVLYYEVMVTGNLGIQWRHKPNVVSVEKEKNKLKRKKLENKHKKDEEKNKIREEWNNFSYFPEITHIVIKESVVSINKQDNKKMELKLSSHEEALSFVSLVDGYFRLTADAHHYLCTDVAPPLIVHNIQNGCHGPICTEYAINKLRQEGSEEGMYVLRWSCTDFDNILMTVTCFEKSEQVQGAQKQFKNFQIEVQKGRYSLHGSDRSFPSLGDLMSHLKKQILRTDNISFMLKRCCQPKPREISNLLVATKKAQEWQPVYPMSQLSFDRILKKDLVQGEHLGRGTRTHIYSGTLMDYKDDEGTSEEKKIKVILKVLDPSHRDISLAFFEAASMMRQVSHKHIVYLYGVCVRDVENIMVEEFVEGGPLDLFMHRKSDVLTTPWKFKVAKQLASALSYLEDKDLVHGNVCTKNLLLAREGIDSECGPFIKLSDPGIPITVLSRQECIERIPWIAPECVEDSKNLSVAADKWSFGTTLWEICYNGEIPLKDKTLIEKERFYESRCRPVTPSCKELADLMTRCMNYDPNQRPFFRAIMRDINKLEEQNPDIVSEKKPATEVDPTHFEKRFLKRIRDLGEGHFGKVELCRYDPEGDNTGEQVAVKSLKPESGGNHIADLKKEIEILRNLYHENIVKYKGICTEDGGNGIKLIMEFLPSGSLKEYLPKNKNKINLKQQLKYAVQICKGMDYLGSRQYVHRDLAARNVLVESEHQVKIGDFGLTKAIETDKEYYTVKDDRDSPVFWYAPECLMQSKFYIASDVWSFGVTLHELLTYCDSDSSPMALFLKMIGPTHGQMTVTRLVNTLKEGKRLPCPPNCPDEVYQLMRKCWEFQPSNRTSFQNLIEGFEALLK
row,Compound,IC50 [nM]
1,"N#CCCCS(=O)(=O)NC1CC=C(c2cc(NC(=O)C3CC3)nc3[nH]ccc23)CC1 (centres unmarked) [Example 158, N-(4-(4-((3-cyanopropyl)sulfonamido)cyclohex-1-en-1-yl)-1H-pyrrolo[2,3-b]pyridin-6-yl)cyclopropanecarboxamide]",< 20
2,"O=C(Nc1cc(C2=CCC(NS(=O)(=O)CCCF)CC2)c2cc[nH]c2n1)C1CC1 (centres unmarked) [Example 159, N-(4-(4-((3-fluoropropyl)sulfonamido)cyclohex-1-en-1-yl)-1H-pyrrolo[2,3-b]pyridin-6-yl)cyclopropanecarboxamide]",< 20
3,"C=CCS(=O)(=O)NC1CC=C(c2cc(NC(=O)C3CC3)nc3[nH]ccc23)CC1 (centres unmarked) [Example 160, N-(4-(4-(allylsulfonamido)cyclohex-1-en-1-yl)-1H-pyrrolo[2,3-b]pyridin-6-yl)cyclopropanecarboxamide]",< 20
4,"O=C(Nc1cc(C2=CCC(NS(=O)(=O)CC3CC3)CC2)c2cc[nH]c2n1)C1CC1 (centres unmarked) [Example 161, N-(4-(4-((cyclopropylmethyl)sulfonamido)cyclohex-1-en-1-yl)-1H-pyrrolo[2,3-b]pyridin-6-yl)cyclopropanecarboxamide]",< 20
5,"O=C(Nc1cc(C2=CCC(NS(=O)(=O)c3ccc(F)c(F)c3)CC2)c2cc[nH]c2n1)C1CC1 (centres unmarked) [Example 162, N-(4-(4-((3,4-difluorophenyl)sulfonamido)cyclohex-1-en-1-yl)-1H-pyrrolo[2,3-b]pyridin-6-yl)cyclopropanecarboxamide]",< 20
6,"O=C(Nc1cc(C2=CCC(NS(=O)(=O)c3cccc(F)c3)CC2)c2cc[nH]c2n1)C1CC1 (centres unmarked) [Example 163, N-(4-(4-((3-fluorophenyl)sulfonamido)cyclohex-1-en-1-yl)-1H-pyrrolo[2,3-b]pyridin-6-yl)cyclopropanecarboxamide]",< 20
7,"N#Cc1ccc(S(=O)(=O)NC2CC=C(c3cc(NC(=O)C4CC4)nc4[nH]ccc34)CC2)cc1 (centres unmarked) [Example 164, N-(4-(4-((4-cyanophenyl)sulfonamido)cyclohex-1-en-1-yl)-1H-pyrrolo[2,3-b]pyridin-6-yl)cyclopropanecarboxamide]",< 20
8,"O=C(Nc1cc(C2=CCC(NS(=O)(=O)C3CCC3)CC2)c2cc[nH]c2n1)C1CC1 (centres unmarked) [Example 165, N-(4-(4-(cyclobutanesulfonamido)cyclohex-1-en-1-yl)-1H-pyrrolo[2,3-b]pyridin-6-yl)cyclopropanecarboxamide]",< 20
9,"CCS(=O)(=O)N1CC=C(c2cc(NC(=O)C3CC3)nc3[nH]ccc23)CC1 [Example 166, N-(4-(1-(ethylsulfonyl)-1,2,3,6-tetrahydropyridin-4-yl)-1H-pyrrolo[2,3-b]pyridin-6-yl)cyclopropanecarboxamide]",20 to 200
10,"O=C(Nc1cc(C2=CCN(S(=O)(=O)CCCF)CC2)c2cc[nH]c2n1)C1CC1 [Example 167, N-(4-(1-((3-fluoropropyl)sulfonyl)-1,2,3,6-tetrahydropyridin-4-yl)-1H-pyrrolo[2,3-b]pyridin-6-yl)cyclopropanecarboxamide]",20 to 200
11,"O=C(Nc1cc(C2=CCN(S(=O)(=O)C3CC3)CC2)c2cc[nH]c2n1)C1CC1 [Example 168, N-(4-(1-(cyclopropylsulfonyl)-1,2,3,6-tetrahydropyridin-4-yl)-1H-pyrrolo[2,3-b]pyridin-6-yl)cyclopropanecarboxamide]",20 to 200
12,"O=C(Nc1cc(C2=CCN(S(=O)(=O)CC3CCOCC3)CC2)c2cc[nH]c2n1)C1CC1 [Example 169, N-(4-(1-(((tetrahydro-2H-pyran-4-yl)methyl)sulfonyl)-1,2,3,6-tetrahydropyridin-4-yl)-1H-pyrrolo[2,3-b]pyridin-6-yl)cyclopropanecarboxamide]",> 200
13,"N#CCCCS(=O)(=O)N1CC=C(c2cc(NC(=O)C3CC3)nc3[nH]ccc23)CC1 [Example 170, N-(4-(1-((3-cyanopropyl)sulfonyl)-1,2,3,6-tetrahydropyridin-4-yl)-1H-pyrrolo[2,3-b]pyridin-6-yl)cyclopropanecarboxamide]",20 to 200
14,"N#CCC1(CS(=O)(=O)N2CC=C(c3cc(NC(=O)C4CC4)nc4[nH]ccc34)CC2)CC1 [Example 171, N-(4-(1-(((1-(cyanomethyl)cyclopropyl)methyl)sulfonyl)-1,2,3,6-tetrahydropyridin-4-yl)-1H-pyrrolo[2,3-b]pyridin-6-yl)cyclopropanecarboxamide]",20 to 200
15,"N#CC1(CS(=O)(=O)N2CC=C(c3cc(NC(=O)C4CC4)nc4[nH]ccc34)CC2)CC1 [Example 172, N-(4-(1-(((1-cyanocyclopropyl)methyl)sulfonyl)-1,2,3,6-tetrahydropyridin-4-yl)-1H-pyrrolo[2,3-b]pyridin-6-yl)cyclopropanecarboxamide]",20 to 200
16,"O=C(Nc1cc(C2=CCN(S(=O)(=O)c3ccc(F)c(F)c3)CC2)c2cc[nH]c2n1)C1CC1 [Example 173, N-(4-(1-((3,4-difluorophenyl)sulfonyl)-1,2,3,6-tetrahydropyridin-4-yl)-1H-pyrrolo[2,3-b]pyridin-6-yl)cyclopropanecarboxamide]",20 to 200

row,Compound,IC50 [nM]
1,"CCS(=O)(=O)N1C2C=C(c3cc(NC(=O)C4CC4)nc4[nH]ccc34)CC1CC2 (centres unmarked) [Example 174, N-(4-(8-(ethylsulfonyl)-8-azabicyclo[3.2.1]oct-2-en-3-yl)-1H-pyrrolo[2,3-b]pyridin-6-yl)cyclopropanecarboxamide]",20 to 200
2,"O=C(Nc1cc(C2=CC3CCC(C2)N3S(=O)(=O)CCCF)c2cc[nH]c2n1)C1CC1 (centres unmarked) [Example 175, N-(4-(8-((3-fluoropropyl)sulfonyl)-8-azabicyclo[3.2.1]oct-2-en-3-yl)-1H-pyrrolo[2,3-b]pyridin-6-yl)cyclopropanecarboxamide]",20 to 200
3,"CCCS(=O)(=O)N1C2C=C(c3cc(NC(=O)C4CC4)nc4[nH]ccc34)CC1CC2 (centres unmarked) [Example 176, N-(4-(8-(propylsulfonyl)-8-azabicyclo[3.2.1]oct-2-en-3-yl)-1H-pyrrolo[2,3-b]pyridin-6-yl)cyclopropanecarboxamide]",20 to 200
4,"O=C(Nc1cc(C2=CC3CCC(C2)N3S(=O)(=O)C2CC2)c2cc[nH]c2n1)C1CC1 (centres unmarked) [Example 177, N-(4-(8-(cyclopropylsulfonyl)-8-azabicyclo[3.2.1]oct-2-en-3-yl)-1H-pyrrolo[2,3-b]pyridin-6-yl)cyclopropanecarboxamide]",20 to 200
5,"O=C(Nc1cc(C2=CC3CCC(C2)N3S(=O)(=O)c2ccc(F)c(F)c2)c2cc[nH]c2n1)C1CC1 (centres unmarked) [Example 178, N-(4-(8-((3,4-difluorophenyl)sulfonyl)-8-azabicyclo[3.2.1]oct-2-en-3-yl)-1H-pyrrolo[2,3-b]pyridin-6-yl)cyclopropanecarboxamide]",20 to 200
6,"CCS(=O)(=O)N1CC=C(c2cc(NC(=O)C3CC3)nc3[nH]ccc23)C(C)(C)C1 [Example 179, N-(4-(1-(ethylsulfonyl)-3,3-dimethyl-1,2,3,6-tetrahydropyridin-4-yl)-1H-pyrrolo[2,3-b]pyridin-6-yl)cyclopropanecarboxamide]",> 200
7,"CC1(C)CN(S(=O)(=O)CCCC#N)CC=C1c1cc(NC(=O)C2CC2)nc2[nH]ccc12 [Example 180, N-(4-(1-((3-cyanopropyl)sulfonyl)-3,3-dimethyl-1,2,3,6-tetrahydropyridin-4-yl)-1H-pyrrolo[2,3-b]pyridin-6-yl)cyclopropanecarboxamide]",20 to 200
8,"O=C(Nc1nc(-c2ccc(NS(=O)(=O)c3ccc(F)c(F)c3)cc2)c2cc[nH]c2n1)C1CC1 [Example 181, N-(4-(4-((3,4-difluorophenyl)sulfonamido)phenyl)-7H-pyrrolo[2,3-d]pyrimidin-2-yl)cyclopropanecarboxamide]",< 20
9,"CCS(=O)(=O)Nc1ccc(-c2nc(NC(=O)C3CC3)nc3[nH]ccc23)cc1 [Example 182, N-(4-(4-(ethylsulfonamido)phenyl)-7H-pyrrolo[2,3-d]pyrimidin-2-yl)cyclopropanecarboxamide]",20 to 200
10,"O=C(Nc1nc(-c2ccc(NS(=O)(=O)C3CCCCC3)cc2)c2cc[nH]c2n1)C1CC1 [Example 183, N-(4-(4-(cyclohexanesulfonamido)phenyl)-7H-pyrrolo[2,3-d]pyrimidin-2-yl)cyclopropanecarboxamide]",< 20
11,"O=C(Nc1nc(-c2ccc(NS(=O)(=O)CCCC(F)(F)F)cc2)c2cc[nH]c2n1)C1CC1 [Example 184, N-(4-(4-((4,4,4-trifluorobutyl)sulfonamido)phenyl)-7H-pyrrolo[2,3-d]pyrimidin-2-yl)cyclopropanecarboxamide]",20 to 200
12,"O=C(Nc1nc(-c2ccc(NS(=O)(=O)CCCF)cc2)c2cc[nH]c2n1)C1CC1 [Example 185, N-(4-(4-((3-fluoropropyl)sulfonamido)phenyl)-7H-pyrrolo[2,3-d]pyrimidin-2-yl)cyclopropanecarboxamide]",< 20
13,"N#CCCCS(=O)(=O)Nc1ccc(-c2nc(NC(=O)C3CC3)nc3[nH]ccc23)cc1 [Example 186, N-(4-(4-((3-cyanopropyl)sulfonamido)phenyl)-7H-pyrrolo[2,3-d]pyrimidin-2-yl)cyclopropanecarboxamide]",20 to 200
14,"O=C(Nc1nc(-c2ccc(NS(=O)(=O)c3ccc(Cl)cc3)cc2)c2cc[nH]c2n1)C1CC1 [Example 187, N-(4-(4-((4-chlorophenyl)sulfonamido)phenyl)-7H-pyrrolo[2,3-d]pyrimidin-2-yl)cyclopropanecarboxamide]",20 to 200
15,"O=C(Nc1nc(-c2ccc(NS(=O)(=O)c3ccc(F)cc3)cc2)c2cc[nH]c2n1)C1CC1 [Example 188, N-(4-(4-((4-fluorophenyl)sulfonamido)phenyl)-7H-pyrrolo[2,3-d]pyrimidin-2-yl)cyclopropanecarboxamide]",< 20
16,"O=C(Nc1nc(-c2ccc(NS(=O)(=O)c3ccc(Br)cc3)cc2)c2cc[nH]c2n1)C1CC1 [Example 189, N-(4-(4-((4-bromophenyl)sulfonamido)phenyl)-7H-pyrrolo[2,3-d]pyrimidin-2-yl)cyclopropanecarboxamide]",20 to 200
